Drawing on the OPERA property sets (Mansouri et al. 2018), this text covers logP and solubility for 63 compounds.

The structures appear in SMILES notation. ≈ marks a conversion by molar mass, not a printed value. Where a SMILES comes first, the peptide text is derived from it.

The term logP denotes the decadic logarithm of the partition coefficient of the neutral form, usually between octanol and water. As for `O=C(OCc1ccccc1)c1ccc(O)cc1`, the logP was 3.56.
On to `O=C(O)Cc1ccccc1I`, for which the logP was 2.33.
`COC(=O)c1c[nH]c2ccccc12` yielded a logP of 2.57.
Turning to `NC(Cc1ccc(O)c(O)c1)C(=O)OCC1CCCCO1` (stereo not given), the log partition coefficient (logP) was determined as 0.47.
Turning to `Clc1ccc(Cl)c(-c2ccccc2Cl)c1`, the logP is 5.48.
Take `N#CCCCCCC#N`: the logP amounted to 0.05.
Same read-out and setting: the same measure for `Cc1c(Cl)cc(C(C)C)c(Cl)c1Cl`: 6.2.
The compound `FC(F)(F)c1cccc(Cn2cncn2)c1` gave a logP of 1.74.
Regarding `CN(C(=O)C(Cl)Cl)c1ccc(O)cc1`, the logP stood at 1.78. This logP and that of the compound before are within 0.2 log units of each other.
By solubility is commonly meant the concentration that dissolves in the medium under given conditions. A low value points to a poorly soluble substance. For `Brc1cc2oc3cc(Br)c(Br)cc3c2cc1Br`, the logP was 6.1 and the solubility worked out at 0.145 µM (≈ 0.07 µg/mL).
`N#Cc1cccc(N=C=S)c1` had a logP of 3.13.
`COP(N)(=S)Oc1ccccc1C(=O)OC(C)C` (stereo not given) showed a logP of 2.7.
The compound `C=CCSCC1Nc2cc(Cl)c(S(N)(=O)=O)cc2S(=O)(=O)N1` (stereo not given) displayed a logP of 1.17.
`CCCOC(=O)CCC(=O)OCCC` had a logP of 2.16.
`OCC(S)CS` (stereo not given) had a solubility of 700000 µM (≈ 87000 µg/mL).
`CC(=O)N[C@H](C(=O)N[C@@H](C)C(N)=O)C(C)C` (Ac-Val-Ala-NH2) had a logP of -1.14.
On the same count and under the same terms, the result for `Fc1ccc(C2=CCNCC2)cc1` reads 2.37; that for `Cc1ccc(C=[N+]([O-])C(C)(C)C)cc1`, 1.74.
Same read-out and setting: the result for `CC1CCC2C(C)C(OC3OC(C(=O)O)C(O)C(O)C3O)OC3OC4(C)CCC1C32OO4` (stereo not given) reads 1.08.
Turning to `CC(=O)c1cc2c(cc1C)C(C)(C)C(C)CC2(C)C` (stereo not given), the logP stood at 5.7 and the solubility stood at 4.84 µM (≈ 1.25 µg/mL).
`CCCCOCCNc1ccc(Cl)cc1C(N)=O` gave a logP of 2.99.
As to `CC(=O)OCN1C(=O)NC(c2ccccc2)(c2ccccc2)C1=O`, the logP was determined as 2.23.
As for `COC(=O)c1cc2ccccc2o1`, the lipophilicity (logP) was determined as 2.53.
Take `CCCCCN(CCCCC)N=O`: the logP was determined as 3.86.
Compound `CC(=O)OCn1ncc2c(O)ncnc21` registered a logP of -0.35.
Regarding `CC(C)(C)c1ccc2oc(N(N)CCC#N)nc2c1`, the lipophilicity (logP) came out at 2.82.
For `CN(C)C(=O)Nc1ccc(Oc2ccc(Cl)cc2)cc1`, the logP was found to be 3.7.
As for `COc1ncnc2c1ncn2C1OC(COC(=O)C(C)(C)C)C(O)C1OC(=O)C(C)(C)C` (stereo not given), the lipophilicity (logP) stood at 3.4.
`O=C(O)CCCCn1nnc2ccccc21`: the log partition coefficient (logP) came to 0.48.
In turn, `CN(C)c1ccc2cc3ccc(N(C)C)cc3nc2c1` came in with a solubility of 2640 µM (≈ 700 µg/mL).
Consider `CC1=C(C(=O)OC(C)C)C(c2cccc([N+](=O)[O-])c2)C(C(=O)OC2CN(C(c3ccccc3)c3ccccc3)C2)=C(N)N1` (stereo not given), for which the lipophilicity (logP) worked out at 5.18.
The same measure, in the same setting: the result for `O=C1CCC(c2cccnc2)N1` (stereo not given) reads -0.3; that for `CCC(=O)OC1(c2ccccc2)CCN(C)CC1CC` (stereo not given), 3.61; that for `NS(=O)(=O)c1cc2c(cc1Cl)N=C(CSCc1ccccc1)NS2(=O)=O`, 1.73.
Compound `O=C(O)c1nc(Cl)ccc1Cl` yielded a log partition coefficient (logP) of 1.06.
Same read-out and setting: the same measure for `CCCCCCN1CC(C(=O)O)CC1=O` (stereo not given): 1.6.
`CN(C)P(=O)(N(C)C)N1CCCC1`: the logP was 0.82.
The compound `CC(=O)Nc1ccc2c(c1)Cc1cc([N+](=O)[O-])ccc1-2` had a lipophilicity (logP) of 3.08.
With `COC1=C(OC)C(=O)C(OC)=C(OC)C1=O`, the lipophilicity (logP) was determined as 0.41.
For `c1ccc2c(c1)oc1ccccc12`, the solubility was determined as 18.4 µM (≈ 3.1 µg/mL).
`C=CCOc1ccccc1OCC(CNC(C)C)OC(=O)CC` (stereo not given): the logP is 3.76.
The compound `CCCNC1=NC(=O)C(=Cc2ccc([N+](=O)[O-])o2)S1` registered a logP of 1.24.
The same measure, in the same setting: the same measure for `C=CC(N)CCC(=O)O` (stereo not given): -2.16; for `COc1cc(CC(=O)O)ccc1O`: 0.33; for `COc1nc(C)nc(=NC(O)=NS(=O)(=O)c2ccccc2C(=O)O)[nH]1`: 1.7.
Same read-out and setting: the result for `S=C=Nc1ccc(I)cc1` reads 4.22; that for `CS/C(C)=N/O`, 1.12; that for `OCC(CO)(CO)CO`, -1.69.
With `CCCCC(OC(Cc1ccccc1)C(=O)N1CCC(OCOC)CC1)C(=O)NC(CC1CCCCC1)C(O)CC(C(=O)NCCNc1noc(N)n1)C(C)C` (stereo not given), the log partition coefficient (logP) amounted to 4.5.
For `N=C(N)NN=C(c1ccccc1)c1cccs1`, the log partition coefficient (logP) is 1.96.
As to `NC(=O)N=NC(N)=O`, the logP was -1.7.
`O=C(NCCN1CCC(n2c(=O)[nH]c3cc(Cl)ccc32)CC1)c1ccc(F)cc1` registered a logP of 4.63.
As for `COC(=O)CCCCC(=O)OC`, the solubility worked out at 34400 µM (≈ 6000 µg/mL).
As to `ClC1=C(Cl)C(Cl)(Cl)C(Cl)(Cl)C1(Cl)Cl`, the solubility was found to be 0.291 µM (≈ 0.1 µg/mL).
Compound `CC(C)OC(C)(C)C` came in with a logP of 2.14.
On to `COc1c(Cl)cc(Cl)c(Cl)c1Cl`, for which the log partition coefficient (logP) came out at 4.75.
The compound `CCCCCNC(=O)CCC(NS(=O)(=O)c1ccccc1)C(=O)O` (stereo not given) registered a logP of 0.03.
`OCc1c2ccccc2cc2ccccc12` showed a logP of 3.04.
Same read-out and setting: the same measure for `CN(C)C(N)=S`: -0.43.
Regarding `Cl.Cl.O=C1c2c(O)ccc(O)c2C(=O)c2c(NCCNCCO)ccc(NCCNCCO)c21`, the solubility was determined as 14500 µM. In other words, the millimolar range.
Compound `CN(C)c1ccc(N=c2snc3sc(S(N)(=O)=O)nn23)cc1` displayed a logP of 2.32.
`CC(=O)Oc1ccc(N(C)C(=O)C(Cl)Cl)cc1` registered a logP of 1.56.
In turn, `CC(CCC(=O)NCC(=O)O)C1CCC2C3CC(O)C4CC(O)CCC4(C)C3CCC12C` (stereo not given) had a log partition coefficient (logP) of 2.15.
